Results on five molecules are retold here after PubChem BioAssay AID1919003 (Molecular Pharmacology Branch, DTP, NCI, 2023).

Where “and” joins values, the source holds several entries; their conditions need not be identical. Equal entries are not always repeated.

The subject of the assay is 786-0 complex spheroids with HUVEC/MSC, growth % test/control. Description: Anticancer human tumor 786-0 cell line growth inhibition [AhR].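 As to all read-outs here: compound exposure lasted seven days before the read-out.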 To be noted: for viability, T/C: stronger effect = lower value. Put shortly:
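Complex tumor spheroids co-cultured with HUVEC and human MSC stroma; AhR antagonists tested in combination with standard-of-care and investigational agents. Top concentration at or near clinical Cmax (else 10 microM), half-log dilutions; growth expressed as percent test/control.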

Setting [1] is: curve of first compound, second compound 0.1 µM.
Where [2] appears, read: curve of first compound, second compound 0.316 µM.
Where [3] appears, read: curve of first compound, second compound 1 µM.
[4] abbreviates: curve of first compound, second compound 3.16 µM.
Setting [5] is: curve of first compound, second compound 10 µM.
Setting [6] is: second compound 0.1 µM, first compound 0.0316 µM.
[7] abbreviates: second compound 0.1 µM, first compound 0.1 µM.
Where [8] appears, read: second compound 0.1 µM, first compound 0.316 µM.
Where [9] appears, read: second compound 0.1 µM, first compound 1 µM.
The mark [10] stands for this setting: second compound 0.1 µM, first compound 3.16 µM.
The mark [11] stands for this setting: second compound 0.1 µM, first compound 10 µM.
Setting [12] is: second compound 0.316 µM, first compound 0.0316 µM.
Setting [13] is: second compound 0.316 µM, first compound 0.1 µM.
Where [14] appears, read: second compound 0.316 µM, first compound 0.316 µM.
[15] abbreviates: second compound 0.316 µM, first compound 1 µM.
[16] abbreviates: second compound 0.316 µM, first compound 3.16 µM.
Where [17] appears, read: second compound 0.316 µM, first compound 10 µM.
Where [18] appears, read: second compound 1 µM, first compound 0.0316 µM.
[19] abbreviates: second compound 1 µM, first compound 0.1 µM.
Where [20] appears, read: second compound 1 µM, first compound 0.316 µM.
Setting [21] is: second compound 1 µM, first compound 1 µM.
The mark [22] stands for this setting: second compound 1 µM, first compound 3.16 µM.
Setting [23] is: second compound 1 µM, first compound 10 µM.
Where [24] appears, read: second compound 3.16 µM, first compound 0.0316 µM.
The mark [25] stands for this setting: second compound 3.16 µM, first compound 0.1 µM.
The mark [26] stands for this setting: second compound 3.16 µM, first compound 0.316 µM.
Where [27] appears, read: second compound 3.16 µM, first compound 1 µM.
[28] abbreviates: second compound 3.16 µM, first compound 3.16 µM.
Setting [29] is: second compound 3.16 µM, first compound 10 µM.
[30] abbreviates: second compound 10 µM, first compound 0.0316 µM.
Where [31] appears, read: second compound 10 µM, first compound 0.1 µM.
The mark [32] stands for this setting: second compound 10 µM, first compound 0.316 µM.
Setting [33] is: second compound 10 µM, first compound 1 µM.
Setting [34] is: second compound 10 µM, first compound 3.16 µM.
[35] abbreviates: second compound 10 µM, first compound 10 µM.

Usually viability, T/C stands for the ratio of treated to control. The IC50 is the midpoint of a concentration-inhibition curve. For the molecule `O=C(C=Cc1cccc(S(=O)(=O)Nc2ccccc2)c1)NO`, the viability, T/C (compound 0.0316 µM) was 104% and 102% and 97.4%; the viability, T/C (compound 0.1 µM) is 101% and 99.7% and 102%; the viability, T/C (compound 0.316 µM) was 101% and 103% and 102%; the viability, T/C (compound 1 µM) is 101% and 102% and 112%; the viability, T/C (compound 3.16 µM) was 75.2% and 93.4% and 85.6%; the viability, T/C (compound 10 µM) is 16.8% and 22.8% and 12.4%. For the setting “curve of compound”, the IC50 is 5.2 µM and 6.41 µM and 5.53 µM.

Take `Nc1ccccc1NC(=O)c1ccc(CNC(=O)OCc2cccnc2)cc1` + CC(CO)NC(=O)c1cc(-c2ccc(Cl)cc2)nn(-c2cnn(C)c2)c1=O: the half-maximal inhibitory concentration (IC50) runs as follows: under setting [1], 5.28 µM; under setting [2], 5.23 µM; under setting [3], 4.78 µM; under setting [4], 4.6 µM; under setting [5], 4.08 µM. The viability, T/C is 107% under setting [6]; 104% under setting [7]; 110% under setting [8]; 104% under setting [9]; 73.8% under setting [10]; 20.3% under setting [11]. The viability, T/C under setting [12] was 114%; the viability, T/C under setting [13] was 99.3%; the viability, T/C under setting [14] was 113%; the viability, T/C under setting [15] is 101%; the viability, T/C under setting [16] was 76.7%; the viability, T/C under setting [17] was 15.9%. Also, the viability, T/C was 101% under setting [18]; 112% under setting [19]; 98.1% under setting [20]; 104% under setting [21]; 68.5% under setting [22]; 16.9% under setting [23]. Further, the viability, T/C by setting is: under setting [24], 111%; under setting [25], 110%; under setting [26], 110%; under setting [27], 92%; under setting [28], 65.7%; under setting [29], 18.8%. Moreover, the viability, T/C was 113% under setting [30]; 114% under setting [31]; 102% under setting [32]; 96.4% under setting [33]; 58% under setting [34]; 18.8% under setting [35].

In the case of `COc1cccc2c1C(=O)c1c(O)c3c(c(O)c1C2=O)CC(O)(C(=O)CO)CC3OC1CC(N)C(O)C(C)O1` (centres undefined) + CC(CO)NC(=O)c1cc(-c2ccc(Cl)cc2)nn(-c2cnn(C)c2)c1=O, the IC50 under setting [1] came out at 0.043 µM; the IC50 under setting [2] is < 0.0316 µM; the IC50 under setting [3] worked out at 0.0455 µM; the IC50 under setting [4] is < 0.0316 µM; the IC50 under setting [5] is < 0.0316 µM. For the same molecule, the viability, T/C reads like this: under setting [6], 54.4%; under setting [7], 37.9%; under setting [8], 12.5%; under setting [9], 2.51%; under setting [10], 0.63%; under setting [11], 0.56%. Also, the viability, T/C was 46.7% under setting [12]; 40% under setting [13]; 14.3% under setting [14]; 3.11% under setting [15]; 0.25% under setting [16]; 0.6% under setting [17]. Also, the viability, T/C was 54.3% under setting [18]; 40.6% under setting [19]; 11.6% under setting [20]; 3.23% under setting [21]; 0.45% under setting [22]; 0.49% under setting [23]. The viability, T/C reads like this: under setting [24], 47.4%; under setting [25], 42.3%; under setting [26], 10.9%; under setting [27], 3.69%; under setting [28], 0.34%; under setting [29], 0.41%. The viability, T/C was 44.9% under setting [30]; 37.5% under setting [31]; 11.2% under setting [32]; 1.48% under setting [33]; 0.72% under setting [34]; 0.86% under setting [35].

Take `COc1ccc([C@@H](O)c2cc(-c3ncnc4cc(N5CCOCC5)ccc34)c(F)cc2Cl)nn1`: the viability, T/C runs as follows: (compound 0.0316 µM) 96.7% and 103% and 114%; (compound 0.1 µM) 93.2% and 100% and 104%; (compound 0.316 µM) 98.7% and 110% and 115%; (compound 1 µM) 84.7% and 105% and 108%; (compound 3.16 µM) 91.4% and 103% and 111%; (compound 10 µM) 70.2% and 91.1% and 85.7%. For the setting “curve of compound”, the IC50 was > 10 µM.

With `CC[C@@]1(O)C(=O)OCc2c1cc1n(c2=O)Cc2cc3c(CN(C)C)c(O)ccc3nc2-1` + Cc1ccccc1N=Nc1ccc(NC(=O)c2ccnn2C)c(C)c1, the concentration for half-maximal inhibition (IC50) is 0.0485 µM under setting [1]; 0.041 µM under setting [2]; 0.0388 µM under setting [3]; 0.0309 µM under setting [4]; 0.027 µM under setting [5]. For the same molecule, the viability, T/C runs as follows: (second compound 0.1 µM, first compound 0.000316 µM) 107%; (second compound 0.1 µM, first compound 0.001 µM) 103%; (second compound 0.1 µM, first compound 0.00316 µM) 104%; (second compound 0.1 µM, first compound 0.01 µM) 109%; under setting [6], 68.1%; under setting [7], 19.6%. The viability, T/C is 101% (second compound 0.316 µM, first compound 0.000316 µM); 99.4% (second compound 0.316 µM, first compound 0.001 µM); 107% (second compound 0.316 µM, first compound 0.00316 µM); 103% (second compound 0.316 µM, first compound 0.01 µM); 59.8% under setting [12]; 16.6% under setting [13]. The viability, T/C (second compound 1 µM, first compound 0.000316 µM) is 102%; the viability, T/C (second compound 1 µM, first compound 0.001 µM) is 101%; the viability, T/C (second compound 1 µM, first compound 0.00316 µM) is 106%; the viability, T/C (second compound 1 µM, first compound 0.01 µM) is 103%; the viability, T/C under setting [18] was 57.3%; the viability, T/C under setting [19] was 15.9%. Moreover, the viability, T/C reads like this: (second compound 3.16 µM, first compound 0.000316 µM) 96.4%; (second compound 3.16 µM, first compound 0.001 µM) 101%; (second compound 3.16 µM, first compound 0.00316 µM) 93.4%; (second compound 3.16 µM, first compound 0.01 µM) 92.3%; under setting [24], 49.1%; under setting [25], 18.7%. The viability, T/C was 90.7% (second compound 10 µM, first compound 0.000316 µM); 89.5% (second compound 10 µM, first compound 0.001 µM); 86.4% (second compound 10 µM, first compound 0.00316 µM); 83.6% (second compound 10 µM, first compound 0.01 µM); 44.6% under setting [30]; 16.7% under setting [31].
